The text below walks through data of ChEMBL document CHEMBL1138682, “Fluorescent pirenzepine derivatives as potential bitopic ligands of the human M1 muscarinic receptor” (J Med Chem, 2004).

Assay [1] has as its target T1, Muscarinic acetylcholine receptor M1 (Homo sapiens, UniProt P11229).
T1 sequence (P11229 whole entry): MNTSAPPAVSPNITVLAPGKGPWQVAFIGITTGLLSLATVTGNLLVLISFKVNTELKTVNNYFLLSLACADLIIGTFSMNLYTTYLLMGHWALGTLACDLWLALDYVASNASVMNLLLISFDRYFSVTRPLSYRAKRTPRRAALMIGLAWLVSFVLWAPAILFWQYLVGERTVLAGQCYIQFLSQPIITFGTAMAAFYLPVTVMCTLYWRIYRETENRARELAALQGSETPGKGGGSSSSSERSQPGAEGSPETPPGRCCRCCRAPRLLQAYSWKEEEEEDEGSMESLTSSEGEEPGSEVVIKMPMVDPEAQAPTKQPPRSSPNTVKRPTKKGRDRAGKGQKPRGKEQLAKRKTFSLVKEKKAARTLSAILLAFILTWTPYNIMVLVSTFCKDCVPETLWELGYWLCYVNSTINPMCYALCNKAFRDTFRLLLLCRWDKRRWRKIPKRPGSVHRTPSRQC
Put plainly: Inhibition of [3H]QNB binding to human muscarinic receptor M1.

For assay [2], the target named is T1, Muscarinic acetylcholine receptor M1. Put plainly: Apparent dissociation constant for human muscarinic receptor M1 from FRET based binding assay.
Assay [3] addresses T2, Muscarinic acetylcholine receptor M1 (Homo sapiens) (UniProt P11229).
T2 sequence (whole entry): T1 sequence (P11229 whole entry)
Description: Apparent dissociation constant for human muscarinic receptor M1 from FRET binding assay

The target in assay [4] is T2, Muscarinic acetylcholine receptor M1 (Homo sapiens). As to conditions: 100 nM.
Description: Dissociation rate constant for human muscarinic receptor at 100 nM with 500 uM brucine
For assay [5] the target is unchanged. As to conditions: 100 nM. The source holds these as a separate data set.
Description: Dissociation rate constant for human muscarinic receptor at 100 nM with 100 uM brucine
For assay [6] the target is unchanged. The following applies: 300 nM.
Description: Dissociation rate constant for human muscarinic receptor at 300 nM with 100 uM brucine
The target is the same in assay [7]. The following applies: 300 nM. The source holds these as a separate data set.
Description: Dissociation rate constant for human muscarinic receptor at 300 nM with 500 uM brucine
Assay [8] shares this target. The assay is described as follows: Dissociation rate constant for human muscarinic receptor at 500 nM with 100 uM brucine.
Assay [9] has the same target. The assay is described as follows: Dissociation rate constant for human muscarinic receptor at 500 nM with 500 uM brucine.
Assay [10] shares this target. The assay is described as follows: Dissociation rate constant for human muscarinic receptor at 200 nM with 100 uM brucine.
The target is the same in assay [11]. The assay is described as follows: Dissociation rate constant for human muscarinic receptor at 200 nM with 500 uM brucine.

`O=C(CCC1=[N+]2C(=Cc3ccc(-c4cccs4)n3[B-]2(F)F)C=C1)NCCN1CCN(CC(=O)N2c3ccccc3C(=O)Nc3cccnc32)CC1` showed a Ki in [1] greater than 1000 nM.
Consider `O=C(CCC1=[N+]2C(=Cc3ccc(-c4cccs4)n3[B-]2(F)F)C=C1)NCCCCCCN1CCN(CC(=O)N2c3ccccc3C(=O)Nc3cccnc32)CC1`, for which, in [2], the Kd was determined as 12.9 nM. In assay [1], the Ki was found to be 8.8 nM. Moreover, in [3], the E came out at 0.63. The Dissociation rate constant in assay [4] is 7.2e-05 1/S; in assay [5] it was 0.0002 1/S.
As to `CNC(=O)CCC1=[N+]2C(=Cc3ccc(-c4cccs4)n3[B-]2(F)F)C=C1`, the inhibition constant Ki in assay [1] is greater than 1000 nM.
With `CCN1/C(=C/C=C/C2N(CCCCCC(=O)NCCOCCOCCN3CCN(CC(=O)N4c5ccccc5C(=O)Nc5cccnc54)CC3)c3ccc(S(=O)(=O)O)cc3C2(C)C)C(C)(C)c2cc(S(=O)(=O)O)ccc21` (configuration not stated), the Kd in [2] came out at 35.7 nM. For the same molecule, the Ki in assay [1] is 135 nM. For the same molecule, the E in assay [3] was found to be 0.6. In addition, the figures for the Dissociation rate constant in assay [6] and in assay [7] were 0.00039 1/S and 0.000353 1/S, respectively.
Take `CCN(CC)c1ccc2c(-c3ccc(S(=O)(=O)NCCCCCC(=O)NCCOCCOCCN4CCN(CC(=O)N5c6ccccc6C(=O)Nc6cccnc65)CC4)cc3S(=O)(=O)[O-])c3ccc(=[N+](CC)CC)cc-3oc2c1`: the Kd in assay [2] was 18.7 nM. In assay [1], this molecule displayed a Ki of 53.5 nM. Besides, the Dissociation rate constant in assay [8] is 0.00062 1/S; in [9], 0.00051 1/S. Besides, the E in [3] was found to be 0.68.
`O=C(CCCCCNC(=O)CCC1=[N+]2C(=Cc3ccc(-c4cccs4)n3[B-]2(F)F)C=C1)NCCCCCC(=O)NCCCCN1CCN(CC(=O)N2c3ccccc3C(=O)Nc3cccnc32)CC1`: in assay [2], the Kd was found to be 12.7 nM. In addition, affinity in assay [1] was put at a Ki of 55.1 nM. Moreover, the results for the Dissociation rate constant in assay [10] and in [11] were 0.00144 1/S and 0.00146 1/S, respectively. Also, in assay [3], the E was found to be 0.51.
The corresponding values for `O=C(CCC1=[N+]2C(=Cc3ccc(-c4cccs4)n3[B-]2(F)F)C=C1)NCCOCCOCCN1CCN(CC(=O)N2c3ccccc3C(=O)Nc3cccnc32)CC1` are 21.9 nM, 45.4 nM, 0.00025 1/S, 0.00013 1/S and 0.6.
Turning to `O=C(CCC1=[N+]2C(=Cc3ccc(-c4cccs4)n3[B-]2(F)F)C=C1)NCCOCCOCCOCCOCCOCCOCCN1CCN(CC(=O)N2c3ccccc3C(=O)Nc3cccnc32)CC1`, the Kd in assay [2] is 4.1 nM. Moreover, the Ki in assay [1] was 8.9 nM. For the same molecule, the E in assay [3] amounted to 0.53. Also, the Dissociation rate constant is 0.00025 1/S in assay [4] and 0.00023 1/S in assay [5].

One may read the Ki as a dissociation constant, usually derived from enzyme kinetics or from competition with a known ligand. A higher Ki goes with a looser hold on the target.
